# Legend:
# CCRF-CEM = experiment: NCI 60-cell drug screen, Leukemia CCRF-CEM; type: cell-based, human; conditions: 1.00E−5 Molar
# MOLT-4 = experiment: NCI 60-cell drug screen, Leukemia MOLT-4; type: cell-based, human; conditions: 1.00E−5 Molar
# RPMI-8226 = experiment: NCI 60-cell drug screen, Leukemia RPMI-8226; type: cell-based, human; conditions: 1.00E−5 Molar
# SR = experiment: NCI 60-cell drug screen, Leukemia SR; type: cell-based, human; conditions: 1.00E−5 Molar
# A549/ATCC = experiment: NCI 60-cell drug screen, Non-Small Cell Lung Cancer A549/ATCC; type: cell-based, human; conditions: 1.00E−5 Molar
# HOP-92 = experiment: NCI 60-cell drug screen, Non-Small Cell Lung Cancer HOP-92; type: cell-based, human; conditions: 1.00E−5 Molar
# NCI-H226 = experiment: NCI 60-cell drug screen, Non-Small Cell Lung Cancer NCI-H226; type: cell-based, human; conditions: 1.00E−5 Molar
# NCI-H23 = experiment: NCI 60-cell drug screen, Non-Small Cell Lung Cancer NCI-H23; type: cell-based, human; conditions: 1.00E−5 Molar
# NCI-H522 = experiment: NCI 60-cell drug screen, Non-Small Cell Lung Cancer NCI-H522; type: cell-based, human; conditions: 1.00E−5 Molar
# HCC-2998 = experiment: NCI 60-cell drug screen, Colon Cancer HCC-2998; type: cell-based, human; conditions: 1.00E−5 Molar
# HCT-15 = experiment: NCI 60-cell drug screen, Colon Cancer HCT-15; type: cell-based, human; conditions: 1.00E−5 Molar
# KM12 = experiment: NCI 60-cell drug screen, Colon Cancer KM12; type: cell-based, human; conditions: 1.00E−5 Molar
# SF-295 = experiment: NCI 60-cell drug screen, CNS Cancer SF-295; type: cell-based, human; conditions: 1.00E−5 Molar
# SF-539 = experiment: NCI 60-cell drug screen, CNS Cancer SF-539; type: cell-based, human; conditions: 1.00E−5 Molar
# SNB-19 = experiment: NCI 60-cell drug screen, CNS Cancer SNB-19; type: cell-based, human; conditions: 1.00E−5 Molar
# U251 = experiment: NCI 60-cell drug screen, CNS Cancer U251; type: cell-based, human; conditions: 1.00E−5 Molar
# LOX IMVI = experiment: NCI 60-cell drug screen, Melanoma LOX IMVI; type: cell-based, human; conditions: 1.00E−5 Molar
# M14 = experiment: NCI 60-cell drug screen, Melanoma M14; type: cell-based, human; conditions: 1.00E−5 Molar
# MDA-MB-435 = experiment: NCI 60-cell drug screen, Melanoma MDA-MB-435; type: cell-based, human; conditions: 1.00E−5 Molar
# SK-MEL-2 = experiment: NCI 60-cell drug screen, Melanoma SK-MEL-2; type: cell-based, human; conditions: 1.00E−5 Molar
# SK-MEL-28 = experiment: NCI 60-cell drug screen, Melanoma SK-MEL-28; type: cell-based, human; conditions: 1.00E−5 Molar
# SK-MEL-5 = experiment: NCI 60-cell drug screen, Melanoma SK-MEL-5; type: cell-based, human; conditions: 1.00E−5 Molar
# UACC-257 = experiment: NCI 60-cell drug screen, Melanoma UACC-257; type: cell-based, human; conditions: 1.00E−5 Molar
# UACC-62 = experiment: NCI 60-cell drug screen, Melanoma UACC-62; type: cell-based, human; conditions: 1.00E−5 Molar
# IGROV1 = experiment: NCI 60-cell drug screen, Ovarian Cancer IGROV1; type: cell-based, human; conditions: 1.00E−5 Molar
# OVCAR-4 = experiment: NCI 60-cell drug screen, Ovarian Cancer OVCAR-4; type: cell-based, human; conditions: 1.00E−5 Molar
# NCI/ADR-RES = experiment: NCI 60-cell drug screen, Ovarian Cancer NCI/ADR-RES; type: cell-based, human; conditions: 1.00E−5 Molar
# Protocol: In brief, cellular protein levels were determined after 48 hours of drug exposure by sulforhodamine B colorimetry. Through the use of a time 0 cell control, the cell growth can be determined for each cell line thus allowing calculations of the 50% growth inhibitory concentration (GI50), the total growth inhibition (TGI), and the 50% lethal concentration (LC50). Comparison to plates not exposed to drug permits determination of concentration and times of exposure conferring 50% net growth inhibition (GI50), TGI, and 50% cell kill (LC50).
# From the data analysis it follows that approximately 95% of the actives (potent anticancer drugs) from the 60 cell line screen can be identified. By these criteria, 6 compounds (each with its certification number, refer to Table 2) of the invention were reported that having anticancer activity.
# The screening system in United State National Cancer Institute (NCI) consists of 60 kinds of different human cancer cells, which can be used to assay the growth-inhibiting ability or cell toxicity of a compound against various cancer and tumor at a certain concentration.
# NCI had selected 6 compounds f1-0, f1-1, f3-1, f1-11, f1-2 and f1-15 as test compounds (Table 2). Among these compounds, compound f1-1 was effective against renal cancer cell strain CAKI-1, and could achieve an inhibition effect on the growth of said cancer cell up to −8.01. Compound f1-11 could achieve inhibiting effects against leukemia cell line CCRF-CEM and RPMI-8226, up to −15.39 and −60.17, respectively. Compound f1-2 was effective against central nervous system cancer cell line SNB-75, and could achieve an effect of inhibiting said cancer cell growth up to −9.55. Compound f1-15 was effective against leukemia (blood cancer) cell line K-562, MOLT-4, and RPMI-8226, and could achieve effects of inhibiting said cancer cells growth up to −31.59, −2.90 and −13.69, respectively. Further, compound f1-15 was effective also against renal cancer cell line CAKI-1, and could achieve an effect of inhibiting said cancer cell growth up to −14.89.
# 786-0 = experiment: NCI 60-cell drug screen, Renal Cancer 786-0; type: cell-based, human; conditions: 1.00E−5 Molar
# ACHN = experiment: NCI 60-cell drug screen, Renal Cancer ACHN; type: cell-based, human; conditions: 1.00E−5 Molar
# RXF 393 = experiment: NCI 60-cell drug screen, Renal Cancer RXF 393; type: cell-based, human; conditions: 1.00E−5 Molar
# SN12C = experiment: NCI 60-cell drug screen, Renal Cancer SN12C; type: cell-based, human; conditions: 1.00E−5 Molar
# UO-31 = experiment: NCI 60-cell drug screen, Renal Cancer UO-31; type: cell-based, human; conditions: 1.00E−5 Molar
# DU-145 = experiment: NCI 60-cell drug screen, Prostate Cancer DU-145; type: cell-based, human; conditions: 1.00E−5 Molar
# MCF7 = experiment: NCI 60-cell drug screen, Breast Cancer MCF7; type: cell-based, human; conditions: 1.00E−5 Molar
# MDA-MB-231/ATCC = experiment: NCI 60-cell drug screen, Breast Cancer MDA-MB-231/ATCC; type: cell-based, human; conditions: 1.00E−5 Molar
# BT-549 = experiment: NCI 60-cell drug screen, Breast Cancer BT-549; type: cell-based, human; conditions: 1.00E−5 Molar
# T-47D = experiment: NCI 60-cell drug screen, Breast Cancer T-47D; type: cell-based, human; conditions: 1.00E−5 Molar
# GBM8401 = experiment: MTT assay, GBM8401 tumor cell; conditions: concentration 10 μM, tumor cell
# GBM8901 = experiment: MTT assay, GBM8901 tumor cell; conditions: concentration 10 μM, tumor cell
compound,measurement,setting,value
"CCSc1nc2ccc3c(c2[nH]1)C(=O)c1ccccc1C3=O [f1-1, 2-(Ethylthio)-1H-anthra[1,2-d]imidazole-6,11-dione]","Growth Percent, CCRF-CEM",CCRF-CEM,36.87%
same,"Growth Percent, MOLT-4",MOLT-4,100.70%
same,"Growth Percent, RPMI-8226",RPMI-8226,28.52%
same,"Growth Percent, SR",SR,129.31%
same,"Growth Percent, A549/ATCC",A549/ATCC,100.94%
same,"Growth Percent, HOP-92",HOP-92,75.35%
same,"Growth Percent, NCI-H226",NCI-H226,62.07%
same,"Growth Percent, NCI-H23",NCI-H23,87.41%
same,"Growth Percent, NCI-H522",NCI-H522,78.60%
same,"Growth Percent, HCC-2998",HCC-2998,89.42%
same,"Growth Percent, HCT-15",HCT-15,32.29%
same,"Growth Percent, KM12",KM12,68.26%
same,"Growth Percent, SF-295",SF-295,100.85%
same,"Growth Percent, SF-539",SF-539,58.58%
same,"Growth Percent, SNB-19",SNB-19,87.90%
same,"Growth Percent, U251",U251,65.03%
same,"Growth Percent, LOX IMVI",LOX IMVI,36.72%
same,"Growth Percent, M14",M14,67.07%
same,"Growth Percent, MDA-MB-435",MDA-MB-435,68.42%
same,"Growth Percent, SK-MEL-2",SK-MEL-2,81.65%
same,"Growth Percent, SK-MEL-28",SK-MEL-28,97.72%
same,"Growth Percent, SK-MEL-5",SK-MEL-5,63.93%
same,"Growth Percent, UACC-257",UACC-257,111.80%
same,"Growth Percent, UACC-62",UACC-62,47.64%
same,"Growth Percent, IGROV1",IGROV1,73.41%
same,"Growth Percent, OVCAR-4",OVCAR-4,55.05%
same,"Growth Percent, NCI/ADR-RES",NCI/ADR-RES,85.72%
same,"Growth Percent, 786-0",786-0,85.38%
same,"Growth Percent, ACHN",ACHN,37.57%
same,"Growth Percent, RXF 393",RXF 393,99.91%
same,"Growth Percent, SN12C",SN12C,67.91%
same,"Growth Percent, UO-31",UO-31,49.19%
same,"Growth Percent, DU-145",DU-145,64.51%
same,"Growth Percent, MCF7",MCF7,43.81%
same,"Growth Percent, MDA-MB-231/ATCC",MDA-MB-231/ATCC,84.79%
same,"Growth Percent, BT-549",BT-549,55.80%
same,"Growth Percent, T-47D",T-47D,30.78%
same,Cell survival rate (%) GBM8401,GBM8401,42 ± 20%
same,Cell survival rate (%) GBM8901,GBM8901,58 ± 7%
